Experimental data published in the kinase profiling compilation of Christmann-Franck et al. (2016).

Legend:
Assay in all cases: radiometric filter-binding kinase assay
MYLK (human) = MYLK (human) (UniProt Q15746)
MKNK2 (human) = MKNK2 (human) (UniProt Q9HBH9)
MAP2K2 (human) = MAP2K2 (human) (UniProt P36507)
IKBKB (human) = IKBKB (human) (UniProt O14920)
PAK6 (human) = PAK6 (human) (UniProt Q9NQU5)
MAP2K1 (human) = MAP2K1 (human) (UniProt Q02750)
PIM1 (human) = PIM1 (human) (UniProt P11309)
BTK (human) = BTK (human) (UniProt Q06187)
TBK1 (human) = TBK1 (human) (UniProt Q9UHD2)
DAPK1 (human) = DAPK1 (human) (UniProt P53355)
NEK6 (human) = NEK6 (human) (UniProt Q9HC98)
RPS6KA5 KD1 KD2 (human) = RPS6KA5 KD1 KD2 (human) (UniProt O75582)
EPHA4 (human) = EPHA4 (human) (UniProt P54764)
EEF2K (human) = EEF2K (human) (UniProt O00418)
EPHB4 (human) = EPHB4 (human) (UniProt P54760)
INSRR (human) = INSRR (human) (UniProt P14616)
PIM3 (human) = PIM3 (human) (UniProt Q86V86)
PKN2 (human) = PKN2 (human) (UniProt Q16513)
MAPKAPK2 (human) = MAPKAPK2 (human) (UniProt P49137)
[1] = system: PAK2 (human), Q13177 [T402E]
SRPK1 (human) = SRPK1 (human) (UniProt Q96SB4)
PIM2 (human) = PIM2 (human) (UniProt Q9P1W9)
CDK2 CCNA2 (human) = CDK2 CCNA2 (human) (UniProt P20248+P24941)
CHEK1 (human) = CHEK1 (human) (UniProt O14757)
MAP3K9 (human) = MAP3K9 (human) (UniProt P80192)
MARK4 (human) = MARK4 (human) (UniProt Q96L34)
TTK (human) = TTK (human) (UniProt P33981)
YES1 (human) = YES1 (human) (UniProt P07947)
[2] = system: RPS6KB1 (human), P23443 [T412E]
GCK (human) = GCK (human) (UniProt Q12851)
CSNK2A1 (human) = CSNK2A1 (human) (UniProt P68400)
MARK3 (human) = MARK3 (human) (UniProt P27448)
MAPK9 (human) = MAPK9 (human) (UniProt P45984)
EPHB1 (human) = EPHB1 (human) (UniProt P54762)
STK3 (human) = STK3 (human) (UniProt Q13188)
MAP3K5 (human) = MAP3K5 (human) (UniProt Q99683)

INSRR (human), sequence (P14616 whole entry, looked up): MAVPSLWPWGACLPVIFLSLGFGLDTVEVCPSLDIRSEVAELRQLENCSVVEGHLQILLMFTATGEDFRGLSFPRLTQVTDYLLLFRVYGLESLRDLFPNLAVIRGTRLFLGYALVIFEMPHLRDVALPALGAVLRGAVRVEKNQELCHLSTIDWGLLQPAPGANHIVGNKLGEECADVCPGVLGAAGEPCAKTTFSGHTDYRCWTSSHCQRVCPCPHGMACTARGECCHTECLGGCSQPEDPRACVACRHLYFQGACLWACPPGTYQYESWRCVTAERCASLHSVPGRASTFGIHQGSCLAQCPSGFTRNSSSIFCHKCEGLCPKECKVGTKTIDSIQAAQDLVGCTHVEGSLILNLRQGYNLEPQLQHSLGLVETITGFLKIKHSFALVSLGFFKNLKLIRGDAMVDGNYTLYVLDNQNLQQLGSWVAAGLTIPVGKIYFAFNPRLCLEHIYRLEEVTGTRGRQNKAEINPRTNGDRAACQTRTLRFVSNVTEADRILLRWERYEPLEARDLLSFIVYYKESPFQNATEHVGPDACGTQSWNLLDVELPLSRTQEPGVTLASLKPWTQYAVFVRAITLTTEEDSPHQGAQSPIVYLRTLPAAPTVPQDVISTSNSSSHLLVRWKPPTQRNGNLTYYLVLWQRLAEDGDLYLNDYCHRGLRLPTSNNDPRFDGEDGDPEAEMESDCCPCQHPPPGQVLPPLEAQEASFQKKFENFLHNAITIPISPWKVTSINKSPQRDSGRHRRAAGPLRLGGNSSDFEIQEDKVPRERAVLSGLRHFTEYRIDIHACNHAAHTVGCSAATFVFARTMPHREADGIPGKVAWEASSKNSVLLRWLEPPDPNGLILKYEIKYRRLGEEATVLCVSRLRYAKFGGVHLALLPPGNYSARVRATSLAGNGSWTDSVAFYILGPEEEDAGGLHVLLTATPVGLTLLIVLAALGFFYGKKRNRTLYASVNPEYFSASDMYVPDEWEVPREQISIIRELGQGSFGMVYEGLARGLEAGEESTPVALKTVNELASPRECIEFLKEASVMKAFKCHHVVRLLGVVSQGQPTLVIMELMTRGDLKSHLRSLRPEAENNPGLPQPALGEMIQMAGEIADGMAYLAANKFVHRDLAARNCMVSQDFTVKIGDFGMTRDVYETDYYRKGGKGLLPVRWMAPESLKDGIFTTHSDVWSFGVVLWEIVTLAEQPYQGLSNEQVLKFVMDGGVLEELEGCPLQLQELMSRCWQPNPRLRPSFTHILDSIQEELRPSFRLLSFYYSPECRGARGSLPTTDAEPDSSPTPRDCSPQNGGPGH
YES1 (human), sequence (P07947 whole entry, looked up): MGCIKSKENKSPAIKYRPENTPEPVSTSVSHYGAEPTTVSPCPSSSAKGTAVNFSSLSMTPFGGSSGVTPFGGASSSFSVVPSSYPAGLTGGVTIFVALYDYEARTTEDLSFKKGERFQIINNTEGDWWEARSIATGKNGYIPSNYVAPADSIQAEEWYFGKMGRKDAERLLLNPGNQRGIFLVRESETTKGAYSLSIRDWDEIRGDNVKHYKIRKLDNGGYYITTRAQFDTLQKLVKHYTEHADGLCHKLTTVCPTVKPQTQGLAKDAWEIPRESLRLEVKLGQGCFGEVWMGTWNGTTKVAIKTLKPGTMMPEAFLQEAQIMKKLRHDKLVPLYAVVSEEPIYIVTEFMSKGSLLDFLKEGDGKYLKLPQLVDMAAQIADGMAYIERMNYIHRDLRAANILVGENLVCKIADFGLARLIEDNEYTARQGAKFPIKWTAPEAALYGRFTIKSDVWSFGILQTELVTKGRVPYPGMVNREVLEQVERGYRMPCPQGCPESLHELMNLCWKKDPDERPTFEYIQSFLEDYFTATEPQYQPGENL
MAP2K1 (human), sequence (Q02750 whole entry, looked up): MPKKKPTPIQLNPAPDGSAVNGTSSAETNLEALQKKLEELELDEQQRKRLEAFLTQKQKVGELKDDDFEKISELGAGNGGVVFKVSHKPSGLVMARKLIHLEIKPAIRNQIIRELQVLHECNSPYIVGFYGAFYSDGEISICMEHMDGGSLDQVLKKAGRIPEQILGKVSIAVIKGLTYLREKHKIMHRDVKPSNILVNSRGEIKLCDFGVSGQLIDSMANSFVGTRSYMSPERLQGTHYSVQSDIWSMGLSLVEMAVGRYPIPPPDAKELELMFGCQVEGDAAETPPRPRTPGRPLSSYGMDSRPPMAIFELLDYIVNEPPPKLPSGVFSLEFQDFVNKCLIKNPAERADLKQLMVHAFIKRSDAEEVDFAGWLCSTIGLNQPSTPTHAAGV
PAK6 (human), sequence (Q9NQU5 whole entry, looked up): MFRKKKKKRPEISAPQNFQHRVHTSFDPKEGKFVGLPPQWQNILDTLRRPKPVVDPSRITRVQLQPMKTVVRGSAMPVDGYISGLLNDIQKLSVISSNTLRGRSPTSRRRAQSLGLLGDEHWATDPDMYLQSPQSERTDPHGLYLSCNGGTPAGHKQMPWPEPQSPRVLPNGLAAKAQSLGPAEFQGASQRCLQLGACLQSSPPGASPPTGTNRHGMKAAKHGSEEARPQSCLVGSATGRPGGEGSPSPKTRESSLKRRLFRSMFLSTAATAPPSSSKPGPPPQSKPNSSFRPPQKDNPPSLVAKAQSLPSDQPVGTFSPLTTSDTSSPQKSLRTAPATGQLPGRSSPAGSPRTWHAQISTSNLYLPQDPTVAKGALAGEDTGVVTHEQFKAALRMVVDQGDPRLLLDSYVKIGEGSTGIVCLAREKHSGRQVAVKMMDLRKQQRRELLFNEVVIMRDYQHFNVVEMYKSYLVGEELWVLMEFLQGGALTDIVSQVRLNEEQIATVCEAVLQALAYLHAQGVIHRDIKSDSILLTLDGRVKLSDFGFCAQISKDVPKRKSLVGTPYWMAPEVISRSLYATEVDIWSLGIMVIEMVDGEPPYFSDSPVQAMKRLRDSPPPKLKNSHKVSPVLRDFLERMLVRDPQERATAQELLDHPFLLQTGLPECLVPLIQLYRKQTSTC
RPS6KA5 KD1 KD2 (human), sequence (O75582 whole entry, looked up): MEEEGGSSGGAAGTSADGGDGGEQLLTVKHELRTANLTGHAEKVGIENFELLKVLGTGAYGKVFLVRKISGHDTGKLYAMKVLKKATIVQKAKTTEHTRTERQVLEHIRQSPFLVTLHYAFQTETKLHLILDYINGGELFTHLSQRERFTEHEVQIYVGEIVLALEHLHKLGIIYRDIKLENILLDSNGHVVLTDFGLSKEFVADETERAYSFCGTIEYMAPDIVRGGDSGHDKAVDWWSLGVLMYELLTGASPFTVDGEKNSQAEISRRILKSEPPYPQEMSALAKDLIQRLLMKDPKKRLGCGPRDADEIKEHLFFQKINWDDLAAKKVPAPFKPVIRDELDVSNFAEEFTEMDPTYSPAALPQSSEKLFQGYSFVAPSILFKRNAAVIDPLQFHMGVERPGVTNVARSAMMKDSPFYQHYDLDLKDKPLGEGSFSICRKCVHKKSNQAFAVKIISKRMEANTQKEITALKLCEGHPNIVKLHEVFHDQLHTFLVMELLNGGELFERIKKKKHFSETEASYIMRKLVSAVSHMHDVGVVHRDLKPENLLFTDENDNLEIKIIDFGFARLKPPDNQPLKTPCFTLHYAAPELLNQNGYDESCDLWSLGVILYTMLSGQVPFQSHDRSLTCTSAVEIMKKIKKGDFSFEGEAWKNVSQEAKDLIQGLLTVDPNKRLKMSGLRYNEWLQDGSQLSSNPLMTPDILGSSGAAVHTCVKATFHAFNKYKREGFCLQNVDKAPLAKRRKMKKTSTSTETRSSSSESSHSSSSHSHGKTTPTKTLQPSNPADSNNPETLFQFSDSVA
MARK3 (human), sequence (P27448 whole entry, looked up): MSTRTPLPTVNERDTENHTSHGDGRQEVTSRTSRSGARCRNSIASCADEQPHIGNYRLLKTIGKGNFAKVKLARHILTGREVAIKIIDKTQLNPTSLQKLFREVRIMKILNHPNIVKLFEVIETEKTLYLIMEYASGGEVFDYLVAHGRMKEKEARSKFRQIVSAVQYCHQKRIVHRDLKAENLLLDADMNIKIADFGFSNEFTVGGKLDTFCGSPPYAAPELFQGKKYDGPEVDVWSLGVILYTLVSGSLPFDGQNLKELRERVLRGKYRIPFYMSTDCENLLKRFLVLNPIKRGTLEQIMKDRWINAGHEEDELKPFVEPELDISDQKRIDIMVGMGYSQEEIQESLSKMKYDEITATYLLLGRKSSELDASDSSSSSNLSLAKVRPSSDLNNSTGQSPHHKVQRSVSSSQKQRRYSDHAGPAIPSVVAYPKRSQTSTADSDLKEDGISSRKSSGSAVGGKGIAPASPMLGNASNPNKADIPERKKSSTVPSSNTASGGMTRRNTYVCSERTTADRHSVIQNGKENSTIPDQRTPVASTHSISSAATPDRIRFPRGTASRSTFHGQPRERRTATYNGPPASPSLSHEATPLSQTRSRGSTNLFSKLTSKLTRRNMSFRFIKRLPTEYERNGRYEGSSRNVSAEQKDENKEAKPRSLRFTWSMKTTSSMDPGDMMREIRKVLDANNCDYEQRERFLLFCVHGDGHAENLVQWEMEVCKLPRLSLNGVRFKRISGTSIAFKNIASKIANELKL
STK3 (human), sequence (Q13188 whole entry, looked up): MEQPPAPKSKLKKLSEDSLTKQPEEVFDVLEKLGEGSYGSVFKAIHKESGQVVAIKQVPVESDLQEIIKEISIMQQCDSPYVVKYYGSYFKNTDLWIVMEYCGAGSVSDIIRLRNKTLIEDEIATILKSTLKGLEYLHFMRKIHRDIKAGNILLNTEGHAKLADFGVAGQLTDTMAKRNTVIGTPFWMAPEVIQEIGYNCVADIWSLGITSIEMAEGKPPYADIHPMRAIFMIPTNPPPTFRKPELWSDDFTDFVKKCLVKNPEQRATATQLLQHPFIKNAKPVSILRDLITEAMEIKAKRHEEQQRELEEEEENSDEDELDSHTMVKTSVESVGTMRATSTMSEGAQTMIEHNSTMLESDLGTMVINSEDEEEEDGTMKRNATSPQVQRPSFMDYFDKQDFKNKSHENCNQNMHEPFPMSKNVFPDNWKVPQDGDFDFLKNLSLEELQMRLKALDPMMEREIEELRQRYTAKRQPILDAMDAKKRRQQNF

N#Cc1c(O)c2c(-c3ccc(-c4ccccc4O)cc3)csc2[nH]c1=O
residual activity (MYLK (human); compound 10.0 µM): 76%
residual activity (MYLK (human); compound 50.0 µM): 39%
residual activity (MYLK (human); compound 100.0 µM): 20%
residual activity (MKNK2 (human); compound 10.0 µM): 102%
residual activity (MKNK2 (human); compound 50.0 µM): 80%
residual activity (MKNK2 (human); compound 100.0 µM): 86%
residual activity (MAP2K2 (human); compound 10.0 µM): 74%
residual activity (MAP2K2 (human); compound 100.0 µM): 19%
residual activity (IKBKB (human); compound 10.0 µM): 86%
residual activity (IKBKB (human); compound 50.0 µM): 60%
residual activity (IKBKB (human); compound 100.0 µM): 39%
residual activity (PAK6 (human); compound 10.0 µM): 69%
residual activity (PAK6 (human); compound 50.0 µM): 92%
residual activity (PAK6 (human); compound 100.0 µM): 82%
residual activity (MAP2K1 (human); compound 10.0 µM): 79%
residual activity (MAP2K1 (human); compound 50.0 µM): 27%
residual activity (MAP2K1 (human); compound 100.0 µM): 29%
residual activity (PIM1 (human); compound 10.0 µM): 26%
residual activity (PIM1 (human); compound 50.0 µM): 5%
residual activity (PIM1 (human); compound 100.0 µM): 7%
residual activity (BTK (human); compound 10.0 µM): 52%
residual activity (BTK (human); compound 100.0 µM): 10%
residual activity (TBK1 (human); compound 10.0 µM): 67%
residual activity (TBK1 (human); compound 50.0 µM): 55%
residual activity (TBK1 (human); compound 100.0 µM): 29%
residual activity (DAPK1 (human); compound 10.0 µM): 107%
residual activity (DAPK1 (human); compound 100.0 µM): 83%
residual activity (NEK6 (human); compound 10.0 µM): 104%
residual activity (NEK6 (human); compound 50.0 µM): 94%
residual activity (NEK6 (human); compound 100.0 µM): 137%
residual activity (RPS6KA5 KD1 KD2 (human); compound 10.0 µM): 69%
residual activity (RPS6KA5 KD1 KD2 (human); compound 50.0 µM): 39%
residual activity (RPS6KA5 KD1 KD2 (human); compound 100.0 µM): 42%
residual activity (EPHA4 (human); compound 10.0 µM): 93%
residual activity (EPHA4 (human); compound 100.0 µM): 64%
residual activity (EEF2K (human); compound 10.0 µM): 89%
residual activity (EEF2K (human); compound 50.0 µM): 73%
residual activity (EEF2K (human); compound 100.0 µM): 64%
residual activity (EPHB4 (human); compound 10.0 µM): 82%
residual activity (EPHB4 (human); compound 100.0 µM): 49%
residual activity (INSRR (human); compound 10.0 µM): 88%
residual activity (INSRR (human); compound 50.0 µM): 90%
residual activity (INSRR (human); compound 100.0 µM): 51%
residual activity (PIM3 (human); compound 10.0 µM): 18%
residual activity (PIM3 (human); compound 50.0 µM): 5%
residual activity (PIM3 (human); compound 100.0 µM): 7%
residual activity (PKN2 (human); compound 10.0 µM): 85%
residual activity (PKN2 (human); compound 50.0 µM): 85%
residual activity (PKN2 (human); compound 100.0 µM): 59%
residual activity (MAPKAPK2 (human); compound 10.0 µM): 77%
residual activity (MAPKAPK2 (human); compound 50.0 µM): 32%
residual activity (MAPKAPK2 (human); compound 100.0 µM): 30%
residual activity ([1]; compound 10.0 µM): 94%
residual activity ([1]; compound 100.0 µM): 63%
residual activity (SRPK1 (human); compound 10.0 µM): 107%
residual activity (SRPK1 (human); compound 50.0 µM): 42%
residual activity (SRPK1 (human); compound 100.0 µM): 35%
residual activity (PIM2 (human); compound 10.0 µM): 71%
residual activity (PIM2 (human); compound 50.0 µM): 17%
residual activity (PIM2 (human); compound 100.0 µM): 18%
residual activity (CDK2 CCNA2 (human); compound 10.0 µM): 100%
residual activity (CDK2 CCNA2 (human); compound 50.0 µM): 84%
residual activity (CDK2 CCNA2 (human); compound 100.0 µM): 121%
residual activity (CHEK1 (human); compound 10.0 µM): 69%
residual activity (CHEK1 (human); compound 50.0 µM): 98%
residual activity (CHEK1 (human); compound 100.0 µM): 43%
residual activity (MAP3K9 (human); compound 10.0 µM): 59%
residual activity (MAP3K9 (human); compound 100.0 µM): 18%
residual activity (MARK4 (human); compound 10.0 µM): 92%
residual activity (MARK4 (human); compound 100.0 µM): 45%
residual activity (TTK (human); compound 10.0 µM): 76%
residual activity (TTK (human); compound 100.0 µM): 48%
residual activity (YES1 (human); compound 10.0 µM): 96%
residual activity (YES1 (human); compound 50.0 µM): 13%
residual activity (YES1 (human); compound 100.0 µM): 16%
residual activity ([2]; compound 10.0 µM): 78%
residual activity ([2]; compound 50.0 µM): 66%
residual activity ([2]; compound 100.0 µM): 38%
residual activity (GCK (human); compound 10.0 µM): 76%
residual activity (GCK (human); compound 100.0 µM): 14%
residual activity (CSNK2A1 (human); compound 10.0 µM): 110%
residual activity (CSNK2A1 (human); compound 50.0 µM): 95%
residual activity (CSNK2A1 (human); compound 100.0 µM): 86%
residual activity (MARK3 (human); compound 10.0 µM): 78%
residual activity (MARK3 (human); compound 50.0 µM): 87%
residual activity (MARK3 (human); compound 100.0 µM): 38%
residual activity (MAPK9 (human); compound 10.0 µM): 94%
residual activity (MAPK9 (human); compound 50.0 µM): 89%
residual activity (MAPK9 (human); compound 100.0 µM): 88%
residual activity (EPHB1 (human); compound 10.0 µM): 110%
residual activity (EPHB1 (human); compound 100.0 µM): 97%
residual activity (STK3 (human); compound 10.0 µM): 60%
residual activity (STK3 (human); compound 50.0 µM): 36%
residual activity (STK3 (human); compound 100.0 µM): 20%
residual activity (MAP3K5 (human); compound 10.0 µM): 140%
residual activity (MAP3K5 (human); compound 100.0 µM): 250%
